Entries after “also recorded” stand apart in the source; their conditions may differ.
Tests used:
[1] = test system: chemo-radiation and PAK induced oral mucositis; experiment: Chemo-radiation and PAK induced oral mucositis; assay type: in vivo, mice; conditions: PLAG 250 mg/kg oral daily, n=19
Procedure: To induce immunocompromised condition in mice of CRIN group and EC-18 group, mice were administered by intraperitoneal injection with 30 mg/kg of 5-FU (Sigma) once a day for 3 days (Sigma) and five days after the experiment initiated, 1Gy of γ-radiation at once. For the EC-18 group, EC-18 (Enzychem Lifesciences, Daejeon, Republic of Korea) was orally given at a dose of 250 mg/kg once a day during the study period. The experimental schedule is described in FIG. 1. On day 6 after the experiment initiated, all the mice of 2 groups (CRIN group, and EC-18 group) were anesthetized with 2% 2, 2, 2,-tribromoethanol by intraperitoneal injection and infected with P. aeruginosa K (PAK) by syringe in the tongue. 1 day after PAK injection, the condition of the tongue and survival rate of mice were monitored and recorded.
P. aeruginosa K was cultured in LB broth or on LB agar plates overnight at 37° C. until they were in log-phase growth. […] The bacterial pellet was suspended to the appropriated number of colony-forming unit (CFU) per milliliter in PBS, as determined by optical density and plating out a serial dilution on broth agar plates. […]
Chemoradiotherapy induced immunocompromised mice were challenged with PAK. […] After the challenge, mice were monitored for 1 day, and the survival rate of mice was recorded.

PAK in THP-1 cells = experiment: In vitro phagocytosis of PAK, THP-1 cells; assay type: cell-based, human; conditions: 1 hour after infection
Procedure: (§1) For CFU counting-based phagocytosis and bacterial killing assay, PAK was cultured at 37° C. overnight with continuous shaking and was resuspended in PBS. The BMDMs or THP-1 cells were incubated with PAK (MOI, 50) for different time intervals at 37° C. The cells were further cultured in the medium containing 10 μg/ml gentamycin for 30 minutes and then were lysed by 0.5% SDS. The diluted aliquots were spread on LB agar plates, and CFU was counted after incubation of the plates overnight at 37° C.

[2] = test system: LPS-induced acute lung injury; experiment: LPS-induced acute lung injury (ALI) in mice; assay type: in vivo; conditions: for number of neutrophils in BALF: LPS-treated mice, co-treatment
[3] = test system: Pseudomonas aeruginosa strain K (PAK) in bone marrow-derived macrophages (BMDMs); experiment: In vitro phagocytosis and bacterial killing assay, BMDMs; assay type: cell-based; conditions: for phagocytic activity of BMDMs (intracellular PAK CFU, confocal): 100 μg/ml pretreated 1 h, PAK MOI 50 for 1 h
Procedure: For immunofluorescence-based measurement of phagocytosis and clearance, BMDMs were grown on glass coverslips in 24-well plates. The cells were infected with PAK (MOI, 50) for different time intervals and then were treated with 10 μg/ml gentamycin for 30 minutes to remove extracellular PAK attached to the cell surface. The infected cells were washed with ice-cold PBS several times, followed by fixing for 10 minutes at room temperature in methanol or 10% paraformaldehyde. The cells were stained with anti-Pseudomonas antibody (Abcam) and then were incubated with goat anti-rabbit IgG secondary antibody conjugated with Alexa Fluor 488. Slides were mounted using the mounting medium ProLong™ Gold antifade reagent with the DNA-binding blue dye DAPI (Thermo Scientific™) and were imaged with a confocal microscope (Zeiss LSM 800, Germany).
as §1
To evaluate whether PLAG accelerates phagocytosis of PAK by macrophages in vitro systems, bone marrow-derived macrophages (BMDMs) were pretreated with PLAG, and then infected with PAK (MOI, 50) for different lengths of time. Gentamycin ([…]) was treated to the cells for 30 minutes to remove extracellular bacteria. Immunofluorescence micrographs of BMDMs incubated with PAK confirmed that PLAG accelerated not only engulfment of bacteria, but also clearance of bacteria (FIG. 5A). […] PAK is recognized by toll-like receptors 4 and 5 and PAK is phagocytosed by co-cultured macrophage at 2 hrs and sustained for 4 hrs. In the PLAG treated cells, phagocytosis of PAK starts at 30 min and maximized at 1 hr and the invading PAK is cleared at 2 hrs.
For the CFU counting-based phagocytosis assay, PAK was cultured at 37° C. overnight with continuous shaking and then resuspended in PBS. BMDMs were pretreated with 100 μg/ml of PLAG or PLH for 1 hour. The cells were infected with PAK (multiplicity of infection [MOI], 50) for 1 h, and then treated with 10 μg/ml gentamycin for 30 minutes to remove extracellular PAK attached to the cell surface. Then, the cells were lysed with 0.5% SDS and serially diluted in PBS to spread on LB agar plates. CFU counts were performed after overnight incubation at 37° C.
For the immunofluorescence-based measurement of phagocytosis and clearance, BMDMs were grown on glass coverslips in 24-well plates. The cells were infected with PAK (MOI, 50) for 1 hour and then treated with 10 μg/ml gentamycin for 30 minutes to remove extracellular PAK attached to the cell surface. The infected cells were washed several times with ice-cold PBS and then fixed for 10 minutes at room temperature in methanol or 10% paraformaldehyde. The cells were then incubated with anti-Pseudomonas primary and Alexa Fluor 488-conjugated goat anti-rabbit IgG secondary antibodies. The coverslips were mounted on slides with ProLong Gold antifade reagent with DAPI (Thermo Fisher Scientific) and imaged with a confocal microscope (LSM 800; Zeiss, Germany). […]

[4] = PAK MOI 50, PLAG pretreated BMDMs

SMILES	survival rate after 7 days [1]	phagocytosis of PAK by THP-1 cells (PAK in THP-1 cells)	inflammatory cell infiltration into the alveolar space (H&E) ([2]; 16 hours after LPS, PLAG 250 mg/kg oral)	mRNA expression of MIP-2, S100A8, S100A9 increased by LPS ([2]; BALF cells, 16 hours)	Evans blue-stained albumin in lungs ([2]; LPS 25 mg/kg intranasal, PLAG 250 mg/kg oral)	number of neutrophils in BALF [2]	MPO activity of isolated lung tissue ([2]; vs LPS alone, PLAG 250 mg/kg oral)	neutrophil migration, PLAG treatment alone ([2]; without LPS)	phagocytic activity of BMDMs (intracellular PAK CFU, confocal) [3]	invading PAK is cleared [3, 4]	phagocytosis of PAK maximized [3, 4]	phagocytosis of PAK starts [3, 4]
CCCCC/C=C\C/C=C\CCCCCCCC(=O)OC(COC(C)=O)COC(=O)CCCCCCCCCCCCCCC (racemic) [PLAG, 1-palmitoyl-2-linoleoyl-3-acetylglycerol]	84%	advanced phagocytosis	considerably reduced	significantly attenuated	significantly decreased	more rapidly return to homeostasis; also recorded: dramatically reduced	significantly decreased	no effect	most advanced phagocytosis; also recorded: most effectively enhanced	2 h	1 h	30 min
CCCCC/C=C\C/C=C\CCCCCCCC(=O)OC(CO)COC(=O)CCCCCCCCCCCCCCC (stereo not drawn) [PLH, palmitic linoleic hydroxyl glycerol, reference compound]	–	little effect	–	–	–	no effect	–	–	little effect	–	–	–

Source: patent US20220339135A1, “COMPOSITIONS AND METHODS FOR MODULATING AN INFLAMMATORY RESPONSE” (Enzychem Lifesciences Corporation, priority 2019, published 2022)
